Laboratory results taken from ChEMBL document CHEMBL4507298 (2021).

Assays:
[1] = biological target: Beta-1 adrenergic receptor (Homo sapiens) (UniProt P08588); settings: Compound concentration 10.0 uM
[2] = biological target: Serine/threonine-protein kinase 17A (Homo sapiens) (UniProt Q9UEE5); settings: Compound concentration 1000.0 nM
[3] = biological target: Tyrosine-protein kinase ABL1 (Homo sapiens) (UniProt P00519); experiment: Abl kinase (h) CEREP ligand profiling; settings: Compound concentration 10.0 uM
[4] = biological target: Prostacyclin receptor (Homo sapiens, UniProt P43119); experiment: Binding assay (PTGIR)
[5] = biological target: Macrophage colony-stimulating factor 1 receptor (Homo sapiens) (UniProt P07333); settings: Compound concentration 1000.0 nM
[6] = tested on: Proto-oncogene tyrosine-protein kinase receptor Ret (Homo sapiens), P07949 [M918T]; settings: Compound concentration 1000.0 nM
[7] = biological target: Inhibitor of nuclear factor kappa-B kinase subunit epsilon (Homo sapiens) (UniProt Q14164); settings: Compound concentration 1000.0 nM
[8] = biological target: T1, Muscarinic acetylcholine receptor M1 (Homo sapiens) (UniProt P11229); experiment: M1 (h) CEREP ligand profiling; settings: Compound concentration 10.0 uM
T1 sequence (whole entry): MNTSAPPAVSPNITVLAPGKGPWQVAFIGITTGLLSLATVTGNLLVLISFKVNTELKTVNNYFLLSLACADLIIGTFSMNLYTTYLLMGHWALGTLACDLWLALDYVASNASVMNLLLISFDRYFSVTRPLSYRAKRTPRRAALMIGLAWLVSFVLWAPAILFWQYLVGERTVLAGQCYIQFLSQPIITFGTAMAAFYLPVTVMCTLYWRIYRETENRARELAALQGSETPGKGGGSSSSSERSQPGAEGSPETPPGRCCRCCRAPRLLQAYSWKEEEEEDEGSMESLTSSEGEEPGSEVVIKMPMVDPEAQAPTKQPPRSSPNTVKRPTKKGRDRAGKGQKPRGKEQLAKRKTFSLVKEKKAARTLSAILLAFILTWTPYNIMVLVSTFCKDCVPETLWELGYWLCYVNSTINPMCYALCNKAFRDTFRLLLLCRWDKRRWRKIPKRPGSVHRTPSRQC

[9] = biological target: Endothelin receptor type B (Homo sapiens) (UniProt P24530); experiment: ETB (h) CEREP ligand profiling; settings: Compound concentration 10.0 uM
[10] = biological target: Serine/threonine-protein kinase pim-1 (Homo sapiens) (UniProt P11309); settings: Compound concentration 1000.0 nM
[11] = biological target: Serine/threonine-protein kinase NLK (Homo sapiens) (UniProt Q9UBE8); settings: Compound concentration 1000.0 nM
[12] = biological target: Insulin receptor (Homo sapiens) (UniProt P06213); settings: Compound concentration 1000.0 nM
[13] = biological target: Dual specificity testis-specific protein kinase 1 (Homo sapiens) (UniProt Q15569); settings: Compound concentration 1000.0 nM
[14] = biological target: Mitogen-activated protein kinase kinase kinase 2 (Homo sapiens) (UniProt Q9Y2U5); settings: Compound concentration 1000.0 nM
[15] = biological target: Calcium/calmodulin-dependent protein kinase kinase 1 (Homo sapiens) (UniProt Q8N5S9); settings: Compound concentration 1000.0 nM
[16] = biological target: NT-3 growth factor receptor (Homo sapiens) (UniProt Q16288); settings: Compound concentration 1000.0 nM
[17] = biological target: Maternal embryonic leucine zipper kinase (Homo sapiens) (UniProt Q14680); settings: Compound concentration 1000.0 nM
[18] = biological target: Cyclin-dependent kinase 2 homolog (Plasmodium falciparum (isolate 3D7)) (UniProt P61075); settings: Compound concentration 1000.0 nM
[19] = biological target: T2, Muscarinic acetylcholine receptor M2 (Homo sapiens) (UniProt P08172); experiment: M2 (h) CEREP ligand profiling; settings: Compound concentration 10.0 uM
T2 sequence (whole entry): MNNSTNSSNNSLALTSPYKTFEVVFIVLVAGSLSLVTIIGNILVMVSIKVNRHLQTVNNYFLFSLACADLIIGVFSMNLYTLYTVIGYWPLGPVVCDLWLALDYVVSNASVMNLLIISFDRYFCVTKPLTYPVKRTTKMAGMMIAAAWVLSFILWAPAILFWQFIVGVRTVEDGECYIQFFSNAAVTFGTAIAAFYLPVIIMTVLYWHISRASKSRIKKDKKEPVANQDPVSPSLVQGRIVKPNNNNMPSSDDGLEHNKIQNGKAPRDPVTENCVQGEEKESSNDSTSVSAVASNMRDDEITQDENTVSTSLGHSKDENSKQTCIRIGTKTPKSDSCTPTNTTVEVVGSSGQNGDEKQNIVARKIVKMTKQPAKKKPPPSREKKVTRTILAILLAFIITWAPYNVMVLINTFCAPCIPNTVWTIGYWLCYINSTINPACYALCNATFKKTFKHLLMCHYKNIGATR

[20] = biological target: Tyrosine-protein kinase Lyn (Homo sapiens) (UniProt P07948); experiment: Lyn kinase (h) CEREP ligand profiling; settings: Compound concentration 10.0 uM
[21] = biological target: Proto-oncogene tyrosine-protein kinase ROS (Homo sapiens) (UniProt P08922); settings: Compound concentration 1000.0 nM
[22] = biological target: Receptor tyrosine-protein kinase erbB-3 (Homo sapiens) (UniProt P21860); settings: Compound concentration 1000.0 nM
[23] = biological target: Angiotensin-converting enzyme (Homo sapiens) (UniProt P12821); experiment: ACE (h) CEREP ligand profiling; settings: Compound concentration 10.0 uM
[24] = tested on: Tyrosine-protein kinase ABL1 (Homo sapiens), P00519 [M351T]; settings: Compound concentration 1000.0 nM
[25] = tested on: Tyrosine-protein kinase ABL1 (Homo sapiens), P00519 [T315I]; settings: Compound concentration 1000.0 nM
[26] = biological target: Ribosyldihydronicotinamide dehydrogenase [quinone] (Homo sapiens) (UniProt P16083); experiment: (§1) ML2 (MT3) CEREP ligand profiling; settings: Compound concentration 10.0 uM
[27] = biological target: Ribosyldihydronicotinamide dehydrogenase [quinone] (Homo sapiens, UniProt P16083); experiment: as §1
[28] = biological target: Mitogen-activated protein kinase kinase kinase 12 (Homo sapiens) (UniProt Q12852); settings: Compound concentration 1000.0 nM
[29] = biological target: Serine/threonine-protein kinase Sgk2 (Homo sapiens) (UniProt Q9HBY8); settings: Compound concentration 1000.0 nM
[30] = biological target: Serine/threonine-protein kinase MRCK gamma (Homo sapiens) (UniProt Q6DT37); settings: Compound concentration 1000.0 nM
[31] = biological target: CYP2C19 (Homo sapiens, UniProt P33261); experiment: CYP2C19 inhibition CEREP ligand profiling; settings: compound concentration 10 uM
[32] = biological target: Myosin-IIIb (Homo sapiens) (UniProt Q8WXR4); settings: Compound concentration 1000.0 nM
[33] = biological target: Ephrin type-B receptor 3 (Homo sapiens) (UniProt P54753); settings: Compound concentration 1000.0 nM
[34] = biological target: D(3) dopamine receptor (Homo sapiens) (UniProt P35462); experiment: D3 (h) CEREP ligand profiling; settings: Compound concentration 10.0 uM

Chain of Ribosyldihydronicotinamide dehydrogenase [quinone] (P16083 whole entry): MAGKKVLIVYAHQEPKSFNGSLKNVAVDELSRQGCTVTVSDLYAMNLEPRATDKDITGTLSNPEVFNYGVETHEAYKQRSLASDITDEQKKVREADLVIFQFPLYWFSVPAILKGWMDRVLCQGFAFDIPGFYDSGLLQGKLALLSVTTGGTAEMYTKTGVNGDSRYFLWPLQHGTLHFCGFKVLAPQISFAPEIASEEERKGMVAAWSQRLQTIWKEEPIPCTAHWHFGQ
Chain of Serine/threonine-protein kinase NLK (Homo sapiens) (Q9UBE8 whole entry): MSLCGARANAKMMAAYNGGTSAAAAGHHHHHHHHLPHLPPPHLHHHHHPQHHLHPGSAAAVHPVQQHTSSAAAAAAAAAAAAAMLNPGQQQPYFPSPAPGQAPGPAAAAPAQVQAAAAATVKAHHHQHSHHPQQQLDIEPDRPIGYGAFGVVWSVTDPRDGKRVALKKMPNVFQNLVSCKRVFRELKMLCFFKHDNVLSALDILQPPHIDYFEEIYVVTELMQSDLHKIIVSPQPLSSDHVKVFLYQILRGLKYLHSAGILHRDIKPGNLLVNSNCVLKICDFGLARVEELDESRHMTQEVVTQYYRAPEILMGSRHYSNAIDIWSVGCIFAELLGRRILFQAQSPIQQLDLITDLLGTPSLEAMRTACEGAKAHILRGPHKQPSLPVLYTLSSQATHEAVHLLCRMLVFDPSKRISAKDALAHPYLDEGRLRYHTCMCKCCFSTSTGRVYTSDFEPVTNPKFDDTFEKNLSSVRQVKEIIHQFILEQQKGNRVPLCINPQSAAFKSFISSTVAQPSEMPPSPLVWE
Chain of Myosin-IIIb (Homo sapiens) (Q8WXR4 whole entry): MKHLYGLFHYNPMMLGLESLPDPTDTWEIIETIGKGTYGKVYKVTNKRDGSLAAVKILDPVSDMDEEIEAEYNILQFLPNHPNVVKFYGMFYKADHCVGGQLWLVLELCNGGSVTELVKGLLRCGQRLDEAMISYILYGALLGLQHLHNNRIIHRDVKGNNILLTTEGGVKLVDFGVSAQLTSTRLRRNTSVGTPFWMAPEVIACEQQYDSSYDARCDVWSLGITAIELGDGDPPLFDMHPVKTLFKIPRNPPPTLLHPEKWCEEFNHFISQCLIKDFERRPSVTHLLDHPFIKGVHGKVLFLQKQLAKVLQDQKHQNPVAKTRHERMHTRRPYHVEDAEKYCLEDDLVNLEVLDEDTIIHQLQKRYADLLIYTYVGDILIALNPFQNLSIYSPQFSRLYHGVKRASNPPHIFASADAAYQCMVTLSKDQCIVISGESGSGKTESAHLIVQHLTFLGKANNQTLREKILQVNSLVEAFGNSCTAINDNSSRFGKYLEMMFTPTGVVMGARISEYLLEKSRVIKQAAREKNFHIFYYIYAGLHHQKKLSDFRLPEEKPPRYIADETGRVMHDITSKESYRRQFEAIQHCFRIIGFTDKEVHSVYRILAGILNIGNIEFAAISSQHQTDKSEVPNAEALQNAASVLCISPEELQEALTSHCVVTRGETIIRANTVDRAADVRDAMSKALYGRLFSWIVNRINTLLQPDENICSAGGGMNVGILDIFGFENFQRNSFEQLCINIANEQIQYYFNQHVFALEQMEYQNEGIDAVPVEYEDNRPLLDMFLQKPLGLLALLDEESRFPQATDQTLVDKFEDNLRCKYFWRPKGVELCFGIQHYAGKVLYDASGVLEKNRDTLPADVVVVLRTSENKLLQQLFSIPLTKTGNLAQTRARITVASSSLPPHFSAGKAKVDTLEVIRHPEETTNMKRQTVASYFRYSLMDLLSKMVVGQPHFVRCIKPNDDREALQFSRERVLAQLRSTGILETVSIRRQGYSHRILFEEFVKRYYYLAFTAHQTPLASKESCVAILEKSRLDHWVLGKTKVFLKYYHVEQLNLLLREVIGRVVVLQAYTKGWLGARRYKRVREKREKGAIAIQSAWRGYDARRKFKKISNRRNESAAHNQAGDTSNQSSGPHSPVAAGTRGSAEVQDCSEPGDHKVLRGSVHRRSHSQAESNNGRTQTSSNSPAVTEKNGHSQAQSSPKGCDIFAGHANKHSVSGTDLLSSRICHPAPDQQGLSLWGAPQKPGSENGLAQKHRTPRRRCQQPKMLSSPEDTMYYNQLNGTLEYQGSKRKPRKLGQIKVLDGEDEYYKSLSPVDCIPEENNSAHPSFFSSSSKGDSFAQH
Chain of Cyclin-dependent kinase 2 homolog (Plasmodium falciparum (isolate 3D7)) (P61075 whole entry): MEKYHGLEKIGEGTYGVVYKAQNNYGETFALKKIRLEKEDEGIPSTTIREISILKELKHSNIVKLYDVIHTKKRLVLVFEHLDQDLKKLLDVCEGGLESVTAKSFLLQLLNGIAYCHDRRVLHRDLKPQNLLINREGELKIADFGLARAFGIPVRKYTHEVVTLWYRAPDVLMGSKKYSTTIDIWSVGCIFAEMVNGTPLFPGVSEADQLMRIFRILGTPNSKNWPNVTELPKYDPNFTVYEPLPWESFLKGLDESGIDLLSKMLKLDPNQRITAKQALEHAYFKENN
Chain of Ribosyldihydronicotinamide dehydrogenase [quinone] (Homo sapiens) (P16083 whole entry): as the sequence (P16083 whole entry) above
Chain of Angiotensin-converting enzyme (Homo sapiens) (P12821 whole entry): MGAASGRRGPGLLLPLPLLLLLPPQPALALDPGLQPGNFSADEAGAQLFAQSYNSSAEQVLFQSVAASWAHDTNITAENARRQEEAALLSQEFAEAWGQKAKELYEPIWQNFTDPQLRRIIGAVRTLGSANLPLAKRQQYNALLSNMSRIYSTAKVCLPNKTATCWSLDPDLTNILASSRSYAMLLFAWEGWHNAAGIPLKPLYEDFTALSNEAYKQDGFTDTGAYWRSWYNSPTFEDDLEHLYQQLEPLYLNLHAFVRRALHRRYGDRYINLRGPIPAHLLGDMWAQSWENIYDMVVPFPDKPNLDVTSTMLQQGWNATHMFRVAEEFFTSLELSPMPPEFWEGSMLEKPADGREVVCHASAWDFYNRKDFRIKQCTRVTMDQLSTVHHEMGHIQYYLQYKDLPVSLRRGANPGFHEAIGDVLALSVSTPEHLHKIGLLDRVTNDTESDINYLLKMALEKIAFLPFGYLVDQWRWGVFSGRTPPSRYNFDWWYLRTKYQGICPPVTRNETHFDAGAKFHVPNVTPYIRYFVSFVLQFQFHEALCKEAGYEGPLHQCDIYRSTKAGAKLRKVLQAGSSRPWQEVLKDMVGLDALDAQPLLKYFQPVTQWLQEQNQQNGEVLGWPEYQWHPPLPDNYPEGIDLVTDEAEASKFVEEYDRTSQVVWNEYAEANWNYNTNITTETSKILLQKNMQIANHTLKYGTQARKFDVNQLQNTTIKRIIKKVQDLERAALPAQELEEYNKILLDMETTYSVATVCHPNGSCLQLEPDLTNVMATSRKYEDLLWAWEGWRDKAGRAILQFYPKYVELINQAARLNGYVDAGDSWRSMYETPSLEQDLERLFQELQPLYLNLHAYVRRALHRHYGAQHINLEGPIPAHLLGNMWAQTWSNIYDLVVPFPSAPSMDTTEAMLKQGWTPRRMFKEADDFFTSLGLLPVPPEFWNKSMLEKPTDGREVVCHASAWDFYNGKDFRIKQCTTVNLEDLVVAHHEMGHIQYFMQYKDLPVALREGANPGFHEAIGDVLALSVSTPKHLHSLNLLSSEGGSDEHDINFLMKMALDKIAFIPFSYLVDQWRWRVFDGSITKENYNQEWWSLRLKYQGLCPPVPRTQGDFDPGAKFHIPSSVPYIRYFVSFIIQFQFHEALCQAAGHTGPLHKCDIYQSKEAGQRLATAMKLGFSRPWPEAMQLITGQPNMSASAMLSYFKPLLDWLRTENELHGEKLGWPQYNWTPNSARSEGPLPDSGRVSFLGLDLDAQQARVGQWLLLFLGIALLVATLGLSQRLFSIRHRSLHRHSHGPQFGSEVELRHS
Chain of Mitogen-activated protein kinase kinase kinase 2 (Homo sapiens) (Q9Y2U5 whole entry): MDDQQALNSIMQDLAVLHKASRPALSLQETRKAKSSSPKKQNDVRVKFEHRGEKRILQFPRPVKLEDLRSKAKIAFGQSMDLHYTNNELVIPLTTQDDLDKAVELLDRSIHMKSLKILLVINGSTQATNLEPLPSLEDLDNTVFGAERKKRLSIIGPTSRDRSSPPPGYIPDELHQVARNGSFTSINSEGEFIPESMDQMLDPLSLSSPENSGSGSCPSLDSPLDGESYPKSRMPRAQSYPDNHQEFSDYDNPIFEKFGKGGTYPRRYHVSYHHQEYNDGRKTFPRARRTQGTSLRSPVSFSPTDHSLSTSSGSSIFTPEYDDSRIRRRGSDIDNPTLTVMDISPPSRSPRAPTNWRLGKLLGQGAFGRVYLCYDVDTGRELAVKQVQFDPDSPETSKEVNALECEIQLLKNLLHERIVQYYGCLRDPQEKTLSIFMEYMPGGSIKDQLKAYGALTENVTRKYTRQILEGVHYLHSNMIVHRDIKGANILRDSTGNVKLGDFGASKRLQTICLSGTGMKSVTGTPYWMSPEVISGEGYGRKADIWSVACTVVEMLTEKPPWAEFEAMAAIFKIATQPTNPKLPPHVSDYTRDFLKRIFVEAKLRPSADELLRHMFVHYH
Chain of Dual specificity testis-specific protein kinase 1 (Homo sapiens) (Q15569 whole entry, looked up): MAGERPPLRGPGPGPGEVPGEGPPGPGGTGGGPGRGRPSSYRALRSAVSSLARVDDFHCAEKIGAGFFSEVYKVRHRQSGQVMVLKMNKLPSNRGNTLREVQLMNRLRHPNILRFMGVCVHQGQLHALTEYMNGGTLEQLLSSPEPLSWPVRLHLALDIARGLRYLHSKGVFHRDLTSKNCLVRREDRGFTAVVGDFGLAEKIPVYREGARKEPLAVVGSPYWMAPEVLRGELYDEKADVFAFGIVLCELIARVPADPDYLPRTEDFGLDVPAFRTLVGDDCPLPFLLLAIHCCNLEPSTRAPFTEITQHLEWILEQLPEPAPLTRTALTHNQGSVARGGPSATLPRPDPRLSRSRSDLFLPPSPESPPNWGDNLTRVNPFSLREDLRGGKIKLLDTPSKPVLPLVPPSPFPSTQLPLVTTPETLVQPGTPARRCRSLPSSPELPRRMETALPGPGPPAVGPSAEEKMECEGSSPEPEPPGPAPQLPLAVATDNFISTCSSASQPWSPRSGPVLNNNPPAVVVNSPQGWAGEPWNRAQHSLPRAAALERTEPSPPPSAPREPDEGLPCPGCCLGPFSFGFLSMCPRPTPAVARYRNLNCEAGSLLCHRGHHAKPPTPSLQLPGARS

O=C(c1ccc(F)cc1)N1CC(COc2ccc(Br)cc2)(C(=O)O)C1 [PF-04475866]
inactive: inhibition [1] -6.66%

COc1ccc2cc(OCC3(C(=O)O)CN(C(=O)c4ccc(F)cc4)C3)ccc2c1 [PF-04418948]
5% (not active): inhibition at 10 µM [31]
520 nM: Ki [27]
530 nM: IC50 [27]
inactive: residual activity [2] 81% | inhibition [3] 9% | residual activity [5] 75% | residual activity [6] 75% | residual activity [7] 95% | inhibition [8] 9% | inhibition [9] -1% | residual activity [10] 96% | residual activity [11] 94% | residual activity [12] 93% | residual activity [13] 98% | residual activity [14] 96% | residual activity [15] 91% | residual activity [16] 98% | residual activity [17] 86% | residual activity [18] 97% | inhibition [19] 1% | inhibition [20] 2% | residual activity [21] 81% | residual activity [22] 89% | inhibition [23] 14% | residual activity [24] 87% | residual activity [25] 84% | inhibition [26] 93% | residual activity [28] 97% | residual activity [29] 87% | residual activity [30] 91% | residual activity [32] 71% | residual activity [33] 99% | inhibition [34] 1%
> 10 µM (not active): Ki [4]
